Test results reported in patent US9120749B2, “Quinoline derivatives and MELK inhibitors containing the same” (ONCOTHERAPY SCIENCE, INC., priority 2010, dated 2015).

How the values were obtained:
MELK = MELK (Homo sapiens, UniProt Q14680); experiment: Kinase assay: MELK activity, phosphorylation of FITC-labeled histone H3 peptide measured by IMAP fluorescence polarization; type: biochemical; settings: read-out: IC50 (μM) (kinase assay)
Summary of the method: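 Substrate is FITC-labeled histone H3 peptide. Compounds come from a 12.5 mM DMSO stock, diluted so assay DMSO is 1%. The stop step adds threefold-volume progressive binding solution, followed by 0.5 h at room temperature and an FP read.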

DU4475 cells [1] = experiment: Cell-based assay: anti-proliferative activity, Cell Counting Kit-8, 72 hours (DU4475); settings: Homo sapiens, DU-4475, 72 h
T47D cells = experiment: Cell-based assay: anti-proliferative activity, Cell Counting Kit-8, 72 hours (T47D); settings: Homo sapiens, T47D, 72 h
Summary of the method: (§1)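 IC50 values come from CCK-8 growth measurements taken 72 hours post-treatment of plated cells with test compounds. Expression of MELK across the panel was assessed through immunoblot of unfractionated lysates.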

A549 cells = experiment: Cell-based assay: anti-proliferative activity, Cell Counting Kit-8, 72 hours (A549); settings: Homo sapiens, A549, 72 h, 72 hours
Summary of the method: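 Cell Counting Kit-8 read-out of A549 growth after 72 hours of inhibitor exposure, cells plated in 96-well format. Values reported as IC50.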

HT-1197 cells = experiment: Cell-based assay: anti-proliferative activity, Cell Counting Kit-8, 72 hours (HT-1197, negative control without MELK expression); settings: Homo sapiens, HT1197, 72 h, 72 hours
Summary of the method: as §1

DU4475 cells [2] = experiment: Cell-based assay: anti-proliferative activity, Cell Counting Kit-8, 72 hours (DU4475); settings: Homo sapiens, DU-4475, 72 h; remark: listed apart in the source
[3] = HT1197 cells (negative control)
[4] = HT1197 cells (negative control, no MELK expression)

MELK, sequence (Q14680 whole entry, looked up): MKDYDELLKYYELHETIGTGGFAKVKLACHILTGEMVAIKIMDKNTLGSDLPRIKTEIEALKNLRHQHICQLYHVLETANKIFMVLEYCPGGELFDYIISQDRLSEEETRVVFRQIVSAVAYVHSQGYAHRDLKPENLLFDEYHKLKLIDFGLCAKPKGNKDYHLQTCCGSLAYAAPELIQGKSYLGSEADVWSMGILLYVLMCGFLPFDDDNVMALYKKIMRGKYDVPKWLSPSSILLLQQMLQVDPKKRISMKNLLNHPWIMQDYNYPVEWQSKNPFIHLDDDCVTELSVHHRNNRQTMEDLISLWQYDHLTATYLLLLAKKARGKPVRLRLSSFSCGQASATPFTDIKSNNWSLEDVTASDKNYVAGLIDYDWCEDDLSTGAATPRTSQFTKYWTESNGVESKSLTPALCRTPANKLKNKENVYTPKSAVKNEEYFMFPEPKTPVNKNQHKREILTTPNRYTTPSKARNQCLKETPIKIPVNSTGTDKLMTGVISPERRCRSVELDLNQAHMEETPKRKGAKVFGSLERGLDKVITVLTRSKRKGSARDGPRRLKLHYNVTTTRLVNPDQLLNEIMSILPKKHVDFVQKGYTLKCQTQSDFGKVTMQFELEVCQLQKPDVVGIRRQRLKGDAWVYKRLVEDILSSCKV

SMILES | IC50 (MELK) [µM] | IC50 (DU4475 cells [1]) [µM] | IC50 (T47D cells) [µM] | IC50 (A549 cells) [µM] | IC50 (HT-1197 cells; [3]) [µM] | IC50 (DU4475 cells [2]) [µM] | IC50 (HT-1197 cells; [4]) [µM]
O=C(c1cnc2ccc(-c3ccc(O)c(Cl)c3)cc2c1Nc1cnn(C2CCNCC2)c1)C1CC1 [Example 519, (6-(3-chloro-4-hydroxyphenyl)-4-((1-(piperidin-4-yl)-1H-pyrazol-4-yl)amino)quinolin-3-yl)(cyclopropyl)methanone] | 0.003 | 0.1 | 0.12 | 0.14 | 1.6 |  | 
O=C(c1cnc2ccc(-c3cc(Cl)c(O)c(Cl)c3)cc2c1N[C@H]1CC[C@H](CN2CCC(O)C2)CC1)C1CC1 (stereo partly drawn) [Example 600, cyclopropyl(6-(3,5-dichloro-4-hydroxyphenyl)-4-((trans-4-((3-hydroxypyrrolidin-1-yl)methyl)cyclohexyl)amino)quinolin-3-yl)methanone] | 0.00073 | 0.029 | 0.078 | 0.12 | 0.76 |  | 
COc1cc(-c2ccc3ncc(C(=O)C(C)C)c(N[C@H]4CC[C@H](CN(C)C)CC4)c3c2)cc(Cl)c1O [Example 606] | 0.0063 | 0.34 | 0.65 | 0.65 | 1.1 |  | 
CCCC(=O)c1cnc2ccc(-c3cc(F)c(O)c(Cl)c3)cc2c1Nc1ccc(CN(C)C)cc1 [Example 537, 1-(6-(3-chloro-5-fluoro-4-hydroxyphenyl)-4-((4-((dimethylamino)methyl)phenyl)amino)quinolin-3-yl)butan-1-one] | 0.016 | 0.098 | 0.11 | 0.15 | 0.94 |  | 
CCC(=O)c1cnc2ccc(-c3cc(F)c(O)c(Cl)c3)cc2c1N[C@H]1CC[C@H](CN(C)C)CC1 [Example 714, 1-(6-(3-chloro-5-fluoro-4-hydroxyphenyl)-4-((trans-4-((dimethylamino)methyl)cyclohexyl)amino)quinolin-3-yl)propan-1-one] | 0.004 |  | 0.054 | 0.11 |  | 0.067 | 0.55
COC1CCN(C2CCC(Nc3c(C(=O)C4CC4)cnc4ccc(-c5cc(Cl)c(O)c(Cl)c5)cc34)CC2)C1 (centres unmarked) [Example 661, cyclopropyl(6-(3,5-dichloro-4-hydroxyphenyl)-4-(4-(3-methoxypyrrolidin-1-yl)cyclohexylamino)quinolin-3-yl)methanone] | 0.0018 |  | 0.25 | 0.17 |  | 0.1 | 1.4
CN(C)C1CCN(C[C@H]2CC[C@H](Nc3c(C(=O)C4CC4)cnc4ccc(-c5cc(F)c(O)c(Cl)c5)cc34)CC2)C1 (some centres unmarked) [Example 662] | 0.004 |  | 0.19 | 0.15 |  | 0.14 | 0.95
N[C@@H]1CCCN(c2ccc(Nc3c(C(=O)C4CC4)cnc4ccc(-c5cc(Cl)c(O)c(Cl)c5)cc34)cn2)C1 [Example 650, (R)-(4-(6-(3-aminopiperidin-1-yl)pyridin-3-ylamino)-6-(3,5-dichloro-4-hydroxyphenyl)quinolin-3-yl)(cyclopropyl)methanone] | 0.001 |  | 0.0099 | 0.015 |  | 0.0072 | 0.32
CC(=O)c1cnc2ccc(-c3cc(Cl)c(O)c(Cl)c3)cc2c1N[C@@H]1CC[C@@H](CN2CCN(C)CC2)C1 [Example 728, 1-(6-(3,5-dichloro-4-hydroxyphenyl)-4-((1R,3R)-3-((4-methylpiperazin-1-yl)methyl)cyclopentylamino)quinolin-3-yl)ethanone] | 0.0057 |  | 0.83 | 0.85 |  | 0.48 | 5.7
CN(C)CC(O)c1ccc(Nc2c(C(=O)C3CC3)cnc3ccc(-c4cc(F)c(O)c(Cl)c4)cc23)cc1 (centres unmarked) [Example 707, {6-(3-Chloro-5-fluoro-4-hydroxyphenyl)-4-[4-(2-(dimethylamino)-1-hydroxyethyl)phenylamino]quinolin-3-yl}(cyclopropyl)methanone] | 0.0059 |  | 0.21 | 0.13 |  | 0.081 | 3.4
CC(=O)c1cnc2ccc(-c3cc(Cl)c(O)c(Cl)c3)cc2c1Nc1ccc(N2CCNCC2)nc1 [Example 702] | 0.0014 |  | 0.046 | 0.14 |  | 0.044 | 2.4
CC(=O)c1cnc2ccc(-c3cc(Cl)c(O)c(Cl)c3)cc2c1Nc1ccc(N2CCCC(N)C2)nc1 (centres unmarked) [Example 681, 1-(4-(6-(3-aminopiperidin-1-yl)pyridin-3-ylamino)-6-(3,5-dichloro-4-hydroxyphenyl)quinolin-3-yl)ethanone] | 0.00086 |  | 0.0046 | 0.017 |  | 0.0085 | 0.25
O=C(c1cnc2ccc(-c3cc(Cl)c(O)c(Cl)c3)cc2c1N[C@H]1CC[C@H](CNCCF)CC1)C1CC1 [Example 700] | 0.0015 |  | 0.47 | 0.47 |  | 0.25 | 2.2
